From patent publication US9914730B2, “Azaquinazoline inhibitors of Atypical protein Kinase C” (Ignyta, Inc., priority 2012, dated 2018) come the findings set out here.

In the assay the target is T1, full-length human PKCι (Homo sapiens, UniProt P41743).
T1 construct: Recombinant, full-length human PKCι expressed in Sf21 insect cells is also commercially available; purchased; host or cells: Sf21 insect cells
T1 sequence (P41743 1-596): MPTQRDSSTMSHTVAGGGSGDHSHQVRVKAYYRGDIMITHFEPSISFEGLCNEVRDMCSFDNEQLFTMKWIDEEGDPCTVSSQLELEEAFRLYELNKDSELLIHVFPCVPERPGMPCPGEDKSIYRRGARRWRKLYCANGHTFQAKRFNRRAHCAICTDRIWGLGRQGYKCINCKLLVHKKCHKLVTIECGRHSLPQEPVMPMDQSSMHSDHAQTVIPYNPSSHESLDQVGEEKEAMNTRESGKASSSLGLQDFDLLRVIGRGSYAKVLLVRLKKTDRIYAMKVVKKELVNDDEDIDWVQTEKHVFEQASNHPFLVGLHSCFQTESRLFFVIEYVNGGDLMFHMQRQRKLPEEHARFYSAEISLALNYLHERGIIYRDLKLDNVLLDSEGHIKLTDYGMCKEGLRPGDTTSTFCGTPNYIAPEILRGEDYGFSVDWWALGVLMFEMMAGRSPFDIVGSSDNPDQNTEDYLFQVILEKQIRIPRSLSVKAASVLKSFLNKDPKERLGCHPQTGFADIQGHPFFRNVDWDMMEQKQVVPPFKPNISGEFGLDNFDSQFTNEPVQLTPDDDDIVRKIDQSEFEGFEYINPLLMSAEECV
Kind of assay: PKCι IC50 IMAP assay, full-length PKCι at 150 μM ATP. The class given is biochemical. To be noted: read-out: IC50 in IMAP assay against full length PKCi at 150 μM ATP. Put shortly:
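Dose-response IC50 values come from IMAP fluorescence polarisation after 60 min room-temperature turnover of 100 nM FAM peptide by ~15 pM insect-cell-expressed full-length PKCι at 150 μM ATP (5× KM^APP), normalised to no-compound and no-enzyme controls.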
For `CN(c1nc(-c2ccnc(Nc3nc(F)c(F)cc3F)c2)nc2cncc(C3CC3)c12)C1CCNCC1` [Example 2014, {5-Cyclopropyl-2-[2-(3,5,6-trifluoro-pyridin-2-ylamino)-pyridin-4-yl]-pyrido[3,4-d]pyrimidin-4-yl}-methyl-piperidin-4-yl-amine], the IC50 was below 100 nM.
Consider `CCn1cc(Cl)c(Nc2cc(-c3nc(N4CCNCC4)c4c(C5CC5)cncc4n3)ccn2)n1` [Example 2015, (4-Chloro-1-ethyl-1H-pyrazol-3-yl)-[4-(5-cyclopropyl-4-piperazin-1-yl-pyrido[3,4-d]pyrimidin-2-yl)-pyridin-2-yl]-amine], for which the IC50 was below 100 nM.
To `FC(F)(F)Cn1ccc(Nc2cc(-c3nc(N4CCNCC4)c4c(C5CC5)cncc4n3)ccn2)n1` [Example 2016, [4-(5-Cyclopropyl-4-piperazin-1-yl-pyrido[3,4-d]pyrimidin-2-yl)-pyridin-2-yl]-[1-(2,2,2-trifluoro-ethyl)-1H-pyrazol-3-yl]-amine] belongs below 100 nM; to `CC1(C)CN(c2nc(-c3ccnc(Nc4ccn(CC(F)(F)F)n4)c3)nc3cncc(C4CC4)c23)CCN1` [Example 2017, {4-[5-Cyclopropyl-4-(3,3-dimethyl-piperazin-1-yl)-pyrido[3,4-d]pyrimidin-2-yl]-pyridin-2-yl}-[1-(2,2,2-trifluoro-ethyl)-1H-pyrazol-3-yl]-amine], below 100 nM.
The value for `CC(C)n1ccc(Nc2cc(-c3nc(N4CCNC(C)(C)C4)c4c(C5CC5)cncc4n3)ccn2)n1` [Example 2018, {4-[5-Cyclopropyl-4-(3,3-dimethyl-piperazin-1-yl)-pyrido[3,4-d]pyrimidin-2-yl]-pyridin-2-yl}-(1-isopropyl-1H-pyrazol-3-yl)-amine] was below 100 nM.
Turning to `CN(c1nc(-c2ccnc(Nc3nc(F)cc(F)c3F)c2)nc2cncc(C3CC3)c12)C1CCNCC1` [Example 2019, {5-Cyclopropyl-2-[2-(3,4,6-trifluoro-pyridin-2-ylamino)-pyridin-4-yl]-pyrido[3,4-d]pyrimidin-4-yl}-methyl-piperidin-4-yl-amine], the IC50 is below 100 nM.
Take `Fc1cc(F)c(Nc2cc(-c3nc(NC4CCNC4)c4c(C5CC5)cncc4n3)ccn2)nc1F` (stereo not drawn) [Example 2020, {5-Cyclopropyl-2-[2-(3,5,6-trifluoro-pyridin-2-ylamino)-pyridin-4-yl]-pyrido[3,4-d]pyrimidin-4-yl}-pyrrolidin-3-yl-amine]: the IC50 was below 100 nM.
To `Fc1cc(F)c(F)c(Nc2cc(-c3nc(NC4CCNC4)c4c(C5CC5)cncc4n3)ccn2)n1` (stereo not drawn) [Example 2021, {5-Cyclopropyl-2-[2-(3,4,6-trifluoro-pyridin-2-ylamino)-pyridin-4-yl]-pyrido[3,4-d]pyrimidin-4-yl}-pyrrolidin-3-yl-amine] belongs below 100 nM; to `c1ccn2nc(Nc3cc(-c4nc(N5CCNCC5)c5c(C6CCC6)cncc5n4)ccn3)nc2c1` [Example 2022, [4-(5-Cyclobutyl-4-piperazin-1-yl-pyrido[3,4-d]pyrimidin-2-yl)-pyridin-2-yl]-[1,2,4]triazolo[1,5-a]pyridin-2-yl-amine], below 100 nM; to `c1cc(Nc2cc(-c3nc(N4CCNCC4)c4c(C5CC5)cncc4n3)ccn2)cc(N2CCOCC2)c1` [Example 2023, [4-(5-Cyclopropyl-4-piperazin-1-yl-pyrido[3,4-d]pyrimidin-2-yl)-pyridin-2-yl]-(3-morpholin-4-yl-phenyl)-amine], below 100 nM.
The value for `FC(F)(F)c1cc2c(-c3nc(N4CCNCC4)c4c(C5CCC5)cncc4n3)ccnc2[nH]1` [Example 2024, 5-Cyclobutyl-4-piperazin-1-yl-2-(2-trifluoromethyl-1H-pyrrolo[2,3-b]pyridin-4-yl)-pyrido[3,4-d]pyrimidine] was below 100 nM; that for `CN(c1nc(-c2ccnc(Nc3c(F)cccc3F)c2)nc2cncc(C3CC3)c12)C1CCNC1` (stereo not drawn) [Example 2025, {5-Cyclopropyl-2-[2-(2,6-difluoro-phenylamino)-pyridin-4-yl]-pyrido[3,4-d]pyrimidin-4-yl}-methyl-pyrrolidin-3-yl-amine] was below 100 nM.
The value for `Fc1cccc(F)c1Nc1cc(-c2nc(NC3CNC3)c3c(C4CC4)cncc3n2)ccn1` [Example 2026, Azetidin-3-yl-{5-cyclopropyl-2-[2-(2,6-difluoro-phenylamino)-pyridin-4-yl]-pyrido[3,4-d]pyrimidin-4-yl}-amine] was below 100 nM.
As to `Fc1ccc(F)c2c1[nH]c1nccc(-c3nc(N4CCNCC4)c4c(C5CC5)cncc4n3)c12` [Example 2027, 4-(5-Cyclopropyl-4-piperazin-1-yl-pyrido[3,4-d]pyrimidin-2-yl)-5,8-difluoro-9H-pyrido[2,3-b]indole], the IC50 is below 100 nM.
To `CC1(C)CN(c2nc(-c3ccnc4[nH]c(C(C)(C)C)cc34)nc3cncc(C4CCC4)c23)CCN1` [Example 2028, 2-(2-tert-Butyl-1H-pyrrolo[2,3-b]pyridin-4-yl)-5-cyclobutyl-4-(3,3-dimethyl-piperazin-1-yl)-pyrido[3,4-d]pyrimidine] belongs below 100 nM.
To `CN(c1nc(-c2ccnc(Nc3c(F)cccc3F)c2)nc2cncc(C3CC3)c12)C1CNC1` [Example 2029, Azetidin-3-yl-{5-cyclopropyl-2-[2-(2,6-difluoro-phenylamino)-pyridin-4-yl]-pyrido[3,4-d]pyrimidin-4-yl}-methyl-amine] belongs below 100 nM.
To `FC(F)(F)Cn1cc(Cl)c(Nc2cc(-c3nc(N4CCNCC4)c4c(C5CC5)cncc4n3)ccn2)n1` [Example 2030, [4-Chloro-1-(2,2,2-trifluoro-ethyl)-1H-pyrazol-3-yl]-[4-(5-cyclopropyl-4-piperazin-1-yl-pyrido[3,4-d]pyrimidin-2-yl)-pyridin-2-yl]-amine] belongs below 100 nM.
With `Fc1cccc2c1[nH]c1nccc(-c3nc(N4CCNCC4)c4c(C5CC5)cncc4n3)c12` [Example 2031, 4-(5-Cyclopropyl-4-piperazin-1-yl-pyrido[3,4-d]pyrimidin-2-yl)-8-fluoro-9H-pyrido[2,3-b]indole], the IC50 was below 100 nM.
`Fc1cccn2nc(Nc3cc(-c4nc(N5CCNCC5)c5c(C6CC6)cncc5n4)ccn3)nc12` [Example 2032, [4-(5-Cyclopropyl-4-piperazin-1-yl-pyrido[3,4-d]pyrimidin-2-yl)-pyridin-2-yl]-(8-fluoro-[1,2,4]triazolo[1,5-a]pyridin-2-yl)-amine]: the IC50 was below 100 nM.
Consider `Fc1ccn2nc(Nc3cc(-c4nc(N5CCNCC5)c5c(C6CC6)cncc5n4)ccn3)nc2c1` [Example 2033, [4-(5-Cyclopropyl-4-piperazin-1-yl-pyrido[3,4-d]pyrimidin-2-yl)-pyridin-2-yl]-(7-fluoro-[1,2,4]triazolo[1,5-a]pyridin-2-yl)-amine], for which the IC50 was below 100 nM.
The value for `Fc1cccc(F)c1Nc1cc(-c2nc(N[C@H]3CCNC3)c3c(C4CC4)cncc3n2)ccn1` [Example 2034, {5-Cyclopropyl-2-[2-(2,6-difluoro-phenylamino)-pyridin-4-yl]-pyrido[3,4-d]pyrimidin-4-yl}-(S)-pyrrolidin-3-yl-amine] was below 100 nM; that for `Fc1cccc(F)c1Nc1cc(-c2nc(N[C@@H]3CCNC3)c3c(C4CC4)cncc3n2)ccn1` [Example 2035, {5-Cyclopropyl-2-[2-(2,6-difluoro-phenylamino)-pyridin-4-yl]-pyrido[3,4-d]pyrimidin-4-yl}-(R)-pyrrolidin-3-yl-amine] was below 100 nM; that for `Fc1ccc2c([nH]c3nccc(-c4nc(N5CCNCC5)c5c(C6CC6)cncc5n4)c32)c1F` [Example 2036, 4-(5-Cyclopropyl-4-piperazin-1-yl-pyrido[3,4-d]pyrimidin-2-yl)-7,8-difluoro-9H-pyrido[2,3-b]indole] was below 100 nM.
For `C[C@@H]1CN(c2nc(-c3ccnc(Nc4nc(F)cc(F)c4F)c3)nc3cncc(C4CC4)c23)C[C@H](C)N1` [Example 2037, {4-[5-Cyclopropyl-4-((cis)-3,5-dimethyl-piperazin-1-yl)-pyrido[3,4-d]pyrimidin-2-yl]-pyridin-2-yl}-(3,4,6-trifluoro-pyridin-2-yl)-amine], the IC50 is below 100 nM.
The value for `CC1(C)CC(Nc2nc(-c3ccnc(Nc4c(F)cccc4F)c3)nc3cncc(C4CC4)c23)CCN1` (stereo not drawn) [Example 2038, {5-Cyclopropyl-2-[2-(2,6-difluoro-phenylamino)-pyridin-4-yl]-pyrido[3,4-d]pyrimidin-4-yl}-(2,2-dimethyl-piperidin-4-yl)-amine] was below 100 nM.
As to `Fc1ccc2nc(Nc3cc(-c4nc(N5CCNCC5)c5c(C6CC6)cncc5n4)ccn3)nn2c1` [Example 2039, [4-(5-Cyclopropyl-4-piperazin-1-yl-pyrido[3,4-d]pyrimidin-2-yl)-pyridin-2-yl]-(6-fluoro-[1,2,4]triazolo[1,5-a]pyridin-2-yl)-amine], the IC50 was below 100 nM.
On to `Fc1cc(F)c2nc(Nc3cc(-c4nc(N5CCNCC5)c5c(C6CC6)cncc5n4)ccn3)nn2c1` [Example 2040, [4-(5-Cyclopropyl-4-piperazin-1-yl-pyrido[3,4-d]pyrimidin-2-yl)-pyridin-2-yl]-(6,8-difluoro-[1,2,4]triazolo[1,5-a]pyridin-2-yl)-amine], for which the IC50 was below 100 nM.
